Reference: patent publication US20070282011A1, “Biodegradable water soluble polymers” (MediVas, LLC, priority 2006, published 2007)

Columns and labels:
[1] = ionizable group of side chain R3 of natural amino acid residue; tabulated as a guide; cited from earlier work
endothelial cells = assay: In vitro cell culture cytotoxicity, percent cell viability by ATP assay (ViaLight Plus); conditions: 0.1-40 ng/ml Taxol equivalent
Protocol: (§1) In vitro assays were conducted using endothelial cells and smooth muscle cells.
(§2) The cells were then fed again with fresh medium (Endothelial Growth Media, EGM-2 BulletKit, Cambrex) and increasing doses of the test substrates were introduced at the following concentrations: 0.1, 0.5, 1, 2, 8 and 40 ng/ml in triplicate. […] The percent cell viability was then determined at 24, 48 and 72 hours following exposure to the test substances, using a standard ATP assay (ViaLight Plus assay kit, Cambrex).

in vitro = conditions: endothelial cells
Protocol: as §1, §2

For `N[C@@H](CCC(=O)O)C(=O)O` [Glutamic acid], the pK [1] is listed as 4.07.
For `CC(=O)O[C@H]1C(=O)[C@@]2(C)[C@H]([C@H](OC(=O)c3ccccc3)[C@]3(O)C[C@H](OC(=O)[C@H](OC(=O)CCC(=O)O)[C@@H](NC(=O)c4ccccc4)c4ccccc4)C(C)=C1C3(C)C)[C@]1(OC(C)=O)CO[C@@H]1C[C@@H]2O` [Taxol-SA, Taxol-2′-hemisuccinate], the “cytotoxicity to the cells (in words)” value (endothelial cells) was “does not appear to change the cytotoxicity”.
For `NCCCC[C@H](N)C(=O)O` [Lysine], the pK [1] is listed as 10.5.
In the case of `N[C@@H](Cc1c[nH]cn1)C(=O)O` [Histidine], the pK [1] is given as 6.10.
`CC(=O)O[C@H]1C(=O)[C@@]2(C)[C@H]([C@H](OC(=O)c3ccccc3)[C@]3(O)C[C@H](OC(=O)[C@H](O)[C@@H](NC(=O)c4ccccc4)c4ccccc4)C(C)=C1C3(C)C)[C@]1(OC(C)=O)CO[C@@H]1C[C@@H]2O` [Taxol, 5β,20-Epoxy-1,2α,4,7β,10β,13α-hexahydroxytax-11-en-9-one 4,10-diacetate 2-benzoate 13-ester with (2R,3S)—N-benzoyl-3-phenylisoserine] gave a viability at 72 h, 0.1 ng/ml (in vitro) of 126%, a viability at 72 h, 0.5 ng/ml (in vitro) of 123% and a viability at 72 h, 1 ng/ml (in vitro) of 114%. For the same compound, the viability at 72 h, 2 ng/ml (in vitro) was 90%, the viability at 72 h, 8 ng/ml (in vitro) was 38.6% and the viability at 72 h, 40 ng/ml (in vitro) was 15.5%.
In the case of `N[C@@H](Cc1ccc(O)cc1)C(=O)O` [Tyrosine], the pK [1] is given as 10.0.
